Assay results from patent publication US20100266503A1, “Breast Cancer Methods, Medicaments and Agents” (priority 2007, published 2010).
Non-standard residues stand in square brackets, D forms with d. Residues, ends and D or L forms follow the SMILES beside them. *: point of attachment. Nle = CCCC[C@H](N)C(=O)O; Cbz = O=C(OCc1ccccc1)*

How the values were obtained:
Format in all cases: cell-based
[1] = system: Hes1 transcriptional activity (Notch target gene); test: CSL (Hes-1) Luciferase reporter assay upon GSI1 treatment; details: 750 nM, 2 microM, 5 microM; 24 h
Procedure: For the Luciferase based reporter assay, 5×10^4 cells were plated in 48 well plates and allowed to adhere over night. The following day, cells were transfected with 200 ng of the 23A plasmid (Hes-1 reporter). 24 h after transfection, transfection media was evacuated and replaced with treatment media (750 nM, 2 microM, 5 microM of the GSI1 and a vehicle treated control). Cells were incubated for 24 h at 37 C. At the 24 h time point the Dual Glow (Promega) Luciferase Kit was implemented according to manufacturer's protocol).

[2] = system: GS components, Notch 1, Actin and Lamin A/C in a single breast cancer cell line; test: Western blot of protein levels after GSI1; details: 750 nM GSI1 vs DMSO control
Procedure: Western blot analysis of GS components, Notch 1, Actin and Lamin A/C in response to DMSO control (1) or 750 nm GSI1 (2). Tubulin was used as a loading control.
FIG. 10 illustrates the effect of GSI1 on the protein levels of the GS components and of Notch 1, Actin and Lamin A/C in a single breast cancer cell line. Shown, are Western blots of the proteins in reponse to treatment with GSI1 (750 nM) or DMSO control. All antibodies were from Abcam unless otherwise stated. Notch1 (Mouse) 1:500, Nicastrin rabbit 1:500, Pen-2 rabbit 1:1000, Presenilin, Goat 1:200, APH-1A Rabbit, 1:500, APH-1B Rabbit, 1:1000, Actin Mouse, 1:20,000(Santa Cruz), Tubulin, Mouse, 1:1000 (Sigma), Lamin NC 1:5000 (Santa Cruz). Secondary Antibodies used were goat anti mouse horseradish peroxidase (Sigma) 1:5000, goat anti-rabbit horseradish peroxidase (Sigma 1:10000) and donkey anti-goat horseradish peroxidase (Sigma 1:5000). Although GSI1 had some effects on protein expression these were marginal apart from Notch 1.

[3] = system: L226U19 and L226TS4 cells; test: SRB proliferation of GSI1 on normal L226 cell lines; details: tested at 10-80 μM; the two L226 cell lines
Procedure: (§1) Graphs illustrating the effects of GSI1, at different concentrations, on proliferation in four normal cell lines: (A) MCF-10A cells, (B) MCF-10A, (C) L226U19 cells and (D) L226TS4 cells.
(§2) The effect of GSI1 on proliferation in normal cell lines was investigated as, illustrated in FIG. 8. […] Therefore we repeated in all 3 normal lines (MCF-10A, L226U19 and L226TS4) at much higher concentrations (10 μM, 20 μM, 40 μM, 60 μM and 80 μM). 10 μM GSI1 was required to kill the MCF-10A cells and over 40 μM GSI1 was required to kill the two L226 cell lines. MCF-10A cells were cultured in DMEM (Invitrogen 11995-040), […] Insulin (Sigma, 11882), 20 ng/ml hEGF (Trevigen, 3443-050-01), 100 ng/ml Cholera Toxin (Sigma, C8052), 500 ng/ml Hydrocortisone (Sigma, H0888), 5% Horse Serum +100U/m1 penicillin, 0.1 mg/ml streptomycin, 2 mM L-glutamine at 37° C. in 5% CO2. L226U19 and TS4 cells were cultured in DME: F12 plus 10% FCS, 5 μg/ml insulin, 1 μg/ml Hydrocortisone, 10 ng/ml hEGF, 10 ng/ml Cholera toxin 100 U/ml penicillin, 0.1 mg/ml streptomycin, 2 mM L-glutamine at 37° C. in 5% CO2.

[4] = system: MDA-MB-231, T47-D and MCF-7 breast cancer cell lines; test: Proliferation of breast cancer cell lines treated with GSIs for 72 h, Coulter Counter cell count; details: tested 10 nM to 50 μM
Procedure: Graphs illustrating the effects of three GSIs: (A) DAPT (N-[N-(3,5-Difluorophenacetyl-L-alanyl)]-S-phenylglycine t-butyl ester), (B) Compound E ((2S)-2-{[(3,5-Difluorophenyl)acetyl]amino}-N-[(3S)-1-methyl-2-oxo-5-phenyl-2,3-dihydro-1H-1,4-benzodiazepin-3-yl]propanamide) and (C) GSI1 (Z-Leu-Leu-Nle-CHO) on proliferation in three breast cancer cell lines (MDA-MB-231, T47-D and MCF-7 cells). Cells were treated with the GSIs at different concentrations for 72 hours and the number of cells counted.
FIG. 6 illustrates the effect of three GSIs, DAPT, Compound E and GSI1 on proliferation in three breast cancer cell lines, MDA-MB-231 [Oestrogen receptor (ER) negative, epidermal growth factor receptor (EGFR) and HER-2 strongly positive, increasingly metastatic T47-D-MCF-MDA], T47-D [weakly ER positive, progesterone receptor positive, strongly EGFR (HER-1, cERB-B1) positive and HER-2(c-ERB-B2) positive] and MCF-7 [highly ER positive and very weakly EGFR and HER-2 positive if at all]. The breast cancer cell lines were treated with the 3 GSIs for 72 h. 20,000 cells were seeded into 24 well plates in triplicate and allowed to adhere overnight. […] After 72 hours the media was removed and the adherent cells removed and counted on a Coulter Counter. […]

MCF-10A cells = test: SRB proliferation of GSI1 on normal cell line MCF-10A
Procedure: as §1, §2

[5] = system: Gamma Secretase Activity in breast cancer cell lines; test: Gamma-Secretase Activity Assay (R&D Systems kit) upon GSI1 treatment; details: 750 nM, 2 uM, 5 uM; 24 and 48 hours
Procedure: 1.5×10^6 cells were plated out and allowed to adhere overnight. The next day, cells were treated with increasing concentrations of GSI1 (750 nM, 2 uM, 5 uM) for 24 and 48 hours. We used the R&D Systems Gamma Secretase Activity Kit (as previously reported- ref from R&D Spec sheet) to determine Gamma Secretase Activity in breast cancer cell lines. Cells were washed twice with ice-cold PBS and all following steps, according to manufacturer's protocol were performed at 4 degrees. Briefly, cells were harvested in the Cell Extraction buffer, and incubated on ice for at least 10 minutes, to allow for maximal Buffer activity. Lysates were centrifuged at 10,000×g for 1 minute. Supernatants were collected with a total protein yield between 0.5-1 mg/ml. Pierce BCA Protein Assay was used to determine protein concentration in each sample. 200 microg of was used and incubated with the gamma-secretase fluorogenic substrate for 2 hours at 37° C. Fluorescence was measured at 355/460 nm.

CCCC[C@@H](C=O)NC(=O)[C@H](CC(C)C)NC(=O)[C@H](CC(C)C)NC(=O)OCc1ccccc1 [GSI1, Z-Leu-Leu-Nle-CHO] (Cbz-Leu-Leu-[Nle]-aldehyde)
Hes1 reporter (Luciferase) activity [1]: dose dependant decrease of the reporter activity | Notch 1 protein expression [2]: markedly upregulated | protein expression other than Notch 1 (GS components, Actin, Lamin A/C) [2]: only marginal effects on protein expression | concentration required to kill the cells [3]: over 40 μM | concentration that virtually eliminates all the cells [4]: 1 µM | effect on proliferation (MCF-10A cells; GSI1 100 nM to 10 μM): no effect on proliferation | concentration required to kill the cells (MCF-10A cells; repeat at 10-80 μM): 10 µM | reduction in gamma-secretase activity [5]: dose dependant and already significant at the dose of 750 nM
